Patent US20150299188A1, “HETEROCYCLIC COMPOUND” (priority 2012, published 2015)

Tested on: FLAP (5-lipoxygenase activating protein)
Test: In vitro binding test: displacement of [3H]-7-chloro-3-(5-((3-fluoropyridin-2-yl)methoxy)-2-methylphenyl)-3,4-dihydroquinazolin-2(1H)-one from Sf9 microsome fractions
Design: species or system human and mouse
Details: Sf9 microsome fractions expressing FLAP; 100% = radioligand binding with 10 μM sodium 3-(3-(tert-butylsulfanyl)-1-(4-chlorobenzyl)-5-isopropyl-1H-indol-2-yl)-2,2-dimethylpropanoate, 0% = DMSO; test compound concentration not given
Method in brief: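 Sf9 microsomes expressing human or mouse FLAP (2 μg/mL) preincubated with compound 10 min at room temperature, then 120 nM tritiated quinazolinone ligand added for 60 min; buffer 100 mM Tris-HCl pH 7.5 with NaCl, EDTA, DTT, glycerol, Tween20. Bound ligand filtered and counted by scintillation; 10 μM indole propanoate defines 100% inhibition, DMSO 0%.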

Compound | inhibitory rate (%)
Cc1n[nH]c(-c2cc3c(c(C4CC4)n2)CN(c2cc4c(cc2Cl)CCC(c2ncccc2F)O4)C(=O)N3)n1 (centres unmarked) [Example 119, 3-(6-chloro-2-(3-fluoropyridin-2-yl)-3,4-dihydro-2H-chromen-7-yl)-5-cyclopropyl-7-(3-methyl-1H-1,2,4-triazol-5-yl)-3,4-dihydropyrido[4,3-d]pyrimidin-2(1H)-one] | 107
O=C1COCCN1c1cc2c(c(C3CC3)n1)CN(c1cc3c(cc1Cl)CCC(c1ncccc1F)O3)C(=O)N2 (centres unmarked) [Example 120, 3-(6-chloro-2-(3-fluoropyridin-2-yl)-3,4-dihydro-2H-chromen-7-yl)-5-cyclopropyl-7-(3-oxomorpholin-4-yl)-3,4-dihydropyrido[4,3-d]pyrimidin-2(1H)-one] | 100
Cc1noc(-c2cc3c(c(C4CC4)n2)CN(c2cc4c(cc2Cl)CCC(c2ncccc2F)O4)C(=O)N3)n1 (centres unmarked) [Example 121, 3-(6-chloro-2-(3-fluoropyridin-2-yl)-3,4-dihydro-2H-chromen-7-yl)-5-cyclopropyl-7-(3-methyl-1,2,4-oxadiazol-5-yl)-3,4-dihydropyrido[4,3-d]pyrimidin-2(1H)-one] | 111
COc1cc2c(c(C3CC3)n1)CN(c1cc3c(cc1C)CCC(c1ncccc1F)O3)C(=O)N2 (centres unmarked) [Example 122, 5-cyclopropyl-3-(2-(3-fluoropyridin-2-yl)-6-methyl-3,4-dihydro-2H-chromen-7-yl)-7-methoxy-3,4-dihydropyrido[4,3-d]pyrimidin-2(1H)-one] | 106
Cc1cc2c(cc1N1Cc3c(cc(-n4cc(CO)cn4)nc3C3CC3)NC1=O)OC(c1ncccc1F)CC2 (centres unmarked) [Example 123, 5-cyclopropyl-3-(2-(3-fluoropyridin-2-yl)-6-methyl-3,4-dihydro-2H-chromen-7-yl)-7-(4-(hydroxymethyl)-1H-pyrazol-1-yl)-3,4-dihydropyrido[4,3-d]pyrimidin-2(1H)-one] | 98
O=C1Nc2cc(-c3nnco3)nc(C3CC3)c2CN1c1cc2c(cc1Cl)CCC(c1ncccc1F)O2 (centres unmarked) [Example 124, 3-(6-chloro-2-(3-fluoropyridin-2-yl)-3,4-dihydro-2H-chromen-7-yl)-5-cyclopropyl-7-(1,3,4-oxadiazol-2-yl)-3,4-dihydropyrido[4,3-d]pyrimidin-2(1H)-one] | 104
O=C1CNCCN1c1cc2c(c(C3CC3)n1)CN(c1cc3c(cc1Cl)CCC(c1ncccc1F)O3)C(=O)N2 (centres unmarked) [Example 125, 3-(6-chloro-2-(3-fluoropyridin-2-yl)-3,4-dihydro-2H-chromen-7-yl)-5-cyclopropyl-7-(2-oxopiperazin-1-yl)-3,4-dihydropyrido[4,3-d]pyrimidin-2(1H)-one] | 95
Cc1noc(C)c1-c1ncc(Cl)c2c1NC(=O)N(c1cc3c(cc1Cl)CCC(c1ncccc1F)O3)C2 (centres unmarked) [Example 126, 5-chloro-3-(6-chloro-2-(3-fluoropyridin-2-yl)-3,4-dihydro-2H-chromen-7-yl)-8-(3,5-dimethyl-1,2-oxazol-4-yl)-3,4-dihydropyrido[3,4-d]pyrimidin-2(1H)-one] | 113
O=C1Nc2c(C3=CCOCC3)ncc(Cl)c2CN1c1cc2c(cc1Cl)CCC(c1ncccc1F)O2 (centres unmarked) [Example 127, 5-chloro-3-(6-chloro-2-(3-fluoropyridin-2-yl)-3,4-dihydro-2H-chromen-7-yl)-8-(3,6-dihydro-2H-pyran-4-yl)-3,4-dihydropyrido[3,4-d]pyrimidin-2(1H)-one] | 98
Cc1cc2c(cc1N1Cc3c(cc(OC(F)F)nc3C3CC3)NC1=O)OC(c1ncccc1F)CC2 (centres unmarked) [Example 128, 5-cyclopropyl-7-(difluoromethoxy)-3-(2-(3-fluoropyridin-2-yl)-6-methyl-3,4-dihydro-2H-chromen-7-yl)-3,4-dihydropyrido[4,3-d]pyrimidin-2 (1H)-one] | 111
Cc1cc2c(cc1N1Cc3c(Cl)cnc(C)c3NC1=O)OC(c1ncccc1F)CC2 (centres unmarked) [Example 129, 5-chloro-3-(2-(3-fluoropyridin-2-yl)-6-methyl-3,4-dihydro-2H-chromen-7-yl)-8-methyl-3,4-dihydropyrido[3,4-d]pyrimidin-2(1H)-one] | 114
O=C1Nc2c(N3CCSCC3)ncc(Cl)c2CN1c1cc2c(cc1Cl)CCC(c1ncccc1F)O2 (centres unmarked) [Example 130, 5-chloro-3-(6-chloro-2-(3-fluoropyridin-2-yl)-3,4-dihydro-2H-chromen-7-yl)-8-(thiomorpholin-4-yl)-3,4-dihydropyrido[3,4-d]pyrimidin-2(1H)-one] | 101
O=C1NCCN1c1cc2c(c(C3CC3)n1)CN(c1cc3c(cc1Cl)CCC(c1ncccc1F)O3)C(=O)N2 (centres unmarked) [Example 131, 3-(6-chloro-2-(3-fluoropyridin-2-yl)-3,4-dihydro-2H-chromen-7-yl)-5-cyclopropyl-7-(2-oxoimidazolidin-1-yl)-3,4-dihydropyrido[4,3-d]pyrimidin-2(1H)-one] | 101

Next, values leading:

inhibitory rate (%) | Compound
104 | Cc1cc2c(cc1N1Cc3c(cc(-n4cccn4)nc3C3CC3)NC1=O)OC(c1ncccc1F)CC2 (centres unmarked) [Example 132, 5-cyclopropyl-3-(2-(3-fluoropyridin-2-yl)-6-methyl-3,4-dihydro-2H-chromen-7-yl)-7-(1H-pyrazol-1-yl)-3,4-dihydropyrido[4,3-d]pyrimidin-2(1H)-one]
100 | Cc1cnn(-c2cc3c(c(C4CC4)n2)CN(c2cc4c(cc2C)CCC(c2ncccc2F)O4)C(=O)N3)c1 (centres unmarked) [Example 133, 5-cyclopropyl-3-(2-(3-fluoropyridin-2-yl)-6-methyl-3,4-dihydro-2H-chromen-7-yl)-7-(4-methyl-1H-pyrazol-1-yl)-3,4-dihydropyrido[4,3-d]pyrimidin-2(1H)-one]
91 | O=C1Nc2cc(-c3nsc(=O)[nH]3)nc(C3CC3)c2CN1c1cc2c(cc1Cl)CCC(c1ncccc1F)O2 (centres unmarked) [Example 134, 3-(6-chloro-2-(3-fluoropyridin-2-yl)-3,4-dihydro-2H-chromen-7-yl)-5-cyclopropyl-7-(5-oxo-4,5-dihydro-1,2,4-thiadiazol-3-yl)-3,4-dihydropyrido[4,3-d]pyrimidin-2(1H)-one]
104 | Cc1cc2c(cc1N1Cc3c(cc(-n4cc(C(N)=O)cn4)nc3C3CC3)NC1=O)OC(c1ncccc1F)CC2 (centres unmarked) [Example 135, 1-(5-cyclopropyl-3-(2-(3-fluoropyridin-2-yl)-6-methyl-3,4-dihydro-2H-chromen-7-yl)-2-oxo-1,2,3,4-tetrahydropyrido[4,3-d]pyrimidin-7-yl)-1H-pyrazole-4-carboxamide]
111 | O=C1Nc2cc(-c3ncon3)nc(C3CC3)c2CN1c1cc2c(cc1Cl)CCC(c1ncccc1F)O2 (centres unmarked) [Example 136, 3-(6-chloro-2-(3-fluoropyridin-2-yl)-3,4-dihydro-2H-chromen-7-yl)-5-cyclopropyl-7-(1,2,4-oxadiazol-3-yl)-3,4-dihydropyrido[4,3-d]pyrimidin-2(1H)-one]
104 | O=C(c1cc2c(c(C3CC3)n1)CN(c1cc3c(cc1Cl)CCC(c1ncccc1F)O3)C(=O)N2)N1CC2(COC2)C1 (centres unmarked) [Example 137, 3-(6-chloro-2-(3-fluoropyridin-2-yl)-3,4-dihydro-2H-chromen-7-yl)-5-cyclopropyl-7-(2-oxa-6-azaspiro[3.3]hept-6-ylcarbonyl)-3,4-dihydropyrido[4,3-d]pyrimidin-2(1H)-one]
109 | Cc1cc2c(cc1N1Cc3c(cc(N4CCOC4=O)nc3C3CC3)NC1=O)OC(c1ncccc1F)CC2 (centres unmarked) [Example 138, 5-cyclopropyl-3-(2-(3-fluoropyridin-2-yl)-6-methyl-3,4-dihydro-2H-chromen-7-yl)-7-(2-oxo-1,3-oxazolidin-3-yl)-3,4-dihydropyrido[4,3-d]pyrimidin-2(1H)-one]
98 | O=C(c1cc2c(c(C3CC3)n1)CN(c1cc3c(cc1Cl)CCC(c1ncccc1F)O3)C(=O)N2)N1CC(F)(F)C1 (centres unmarked) [Example 139, 3-(6-chloro-2-(3-fluoropyridin-2-yl)-3,4-dihydro-2H-chromen-7-yl)-5-cyclopropyl-7-((3,3-difluoroazetidin-1-yl)carbonyl)-3,4-dihydropyrido[4,3-d]pyrimidin-2(1H)-one]
99 | Cc1cc2c(cc1N1Cc3c(cc(-n4cncn4)nc3C3CC3)NC1=O)OC(c1ncccc1F)CC2 (centres unmarked) [Example 140, 5-cyclopropyl-3-(2-(3-fluoropyridin-2-yl)-6-methyl-3,4-dihydro-2H-chromen-7-yl)-7-(1H-1,2,4-triazol-1-yl)-3,4-dihydropyrido[4,3-d]pyrimidin-2(1H)-one]
102 | Cc1cc2c(cc1N1Cc3c(cc(Oc4ccnn4C)nc3C3CC3)NC1=O)OC(c1ncccc1F)CC2 (centres unmarked) [Example 141, 5-cyclopropyl-3-(2-(3-fluoropyridin-2-yl)-6-methyl-3,4-dihydro-2H-chromen-7-yl)-7-((1-methyl-1H-pyrazol-5-yl)oxy)-3,4-dihydropyrido[4,3-d]pyrimidin-2(1H)-one]
102 | Cc1cc2c(cc1N1Cc3c(Cl)cnc(C4CC4)c3NC1=O)OC(c1ncccc1F)CC2 (centres unmarked) [Example 142, 5-chloro-8-cyclopropyl-3-(2-(3-fluoropyridin-2-yl)-6-methyl-3,4-dihydro-2H-chromen-7-yl)-3,4-dihydropyrido[3,4-d]pyrimidin-2(1H)-one]
89 | O=C1Nc2c(C3CC3)ncc(Cl)c2CN1c1cc2c(cc1Cl)CCC(c1ncccc1F)O2 (centres unmarked) [Example 143, 5-chloro-3-(6-chloro-2-(3-fluoropyridin-2-yl)-3,4-dihydro-2H-chromen-7-yl)-8-cyclopropyl-3,4-dihydropyrido[3,4-d]pyrimidin-2(1H)-one]
92 | Cc1cc2c(cc1N1Cc3c(cc(N4CCCC4=O)nc3C3CC3)NC1=O)OC(c1ncccc1F)CC2 (centres unmarked) [Example 144, 5-cyclopropyl-3-(2-(3-fluoropyridin-2-yl)-6-methyl-3,4-dihydro-2H-chromen-7-yl)-7-(2-oxopyrrolidin-1-yl)-3,4-dihydropyrido[4,3-d]pyrimidin-2(1H)-one]
